Read-outs that look alike come from different tables or passages of the source.
Columns and labels:
[1] = tested on: bone marrow cells transduced with BCR/ABL-expressing retroviruses; assay: BCR/ABL-evoked myeloid colony formation assay; assay type: cell-based, mice; conditions: rapamycin 2 nM, Imatinib 0.5 μM, UO126 2 μM alone, or all three combined; 10 days
[2] = tested on: BCR/ABL-transformed primary B-lymphoblast cells; conditions: 24 hours, Imatinib 1 μM, Rapamycin 10 nM; for % of viable cells in phase: G1 / % of viable cells in phase: G2/M / % of viable cells in phase: S / Total % Apoptotic: UO126 5 μM; for Total % Apoptotic: sub-G1 DNA content
Method: For cell cycle and apoptosis assays, live cells from randomly growing BCR/ABL-transformed B-lymphoblasts were isolated using Histopaque (Sigma). After washing twice, the cells were resuspended in regular growth medium (RPMI-containing 20% FCS and 50 μM 2-mercaptoethanol), exposed to inhibitors at the indicated concentrations for 24 hours, harvested and fixed in 70% ethanol, for 3 hours at −20 C. Fixed cells were stained with propidium iodide, and cell cycle parameters were analyzed by using FACScan and Modfit LT software.
3 million cells in media as described above and treated with the indicated drugs or left untreated for 24 hours, were fixed, stained with propidium iodide and subject to flow cytometry for cell cycle analysis.

Ba/F-BCR/ABL T315I cells = assay: [3H]-thymidine proliferation assay, Imatinib-resistant Ba/F-BCR/ABL T315I cells; conditions: 48 hours
[3] = tested on: Ba/F-FLT3-ITD F691I cells; conditions: 48 hours; PKC412 10 nM alone; two-drug combinations at indicated concentrations
Method: (§3) Cell proliferation was measured by a [^3H]-thymidine incorporation assay (see FIG. 6C).

K562 cells = assay: [3H]-thymidine proliferation assay, K562 cells; assay type: cell-based, human; conditions: rapamycin alone, 5 nM; 60 hours
Erk1/2 kinases [4] = conditions: 18 hours; indicated concentrations
Method: (§1) Cells were lysed in a buffer containing Tris-HCl (50 mM, pH 8.0), NaCl (150 mM), NP40 (1% v/v), NaF (10 mM), 2 mM sodium orthovanadate and a cocktail of protease inhibitors, as described previously (Gu et al., Mol. Cell. Biol. 20:7109 (2000)). Cell lysates containing equivalent amounts of protein ([…]) were loaded and separated by SDS-PAGE. Immunoblotting was performed using phospho-specific antibodies reactive with Thr389 of p70 S6K, Ser65 of 4E-BP1 or Thr202/Tyr204 of p44/42 Erk (Cell Signaling Technology, Beverly, Ma.). Detection was by enhanced chemiluminescence (ECL). To control for equal loading, blots were reprobed with antibodies that detect total Erk2 or p70 S6K (Santa Cruz Biotechnology).
(§2) Cell lysates were prepared and equal amounts (50 μg) of protein were resolved by SDS-PAGE followed by immunoblot analysis with the indicated phospho-specific antibodies. To control for loading, the blots were stripped and reprobed with anti-Erk2 antibodies.

p70 S6K [5] = conditions: rapamycin 0.5-5 nM; 18 hours
Method: as §1, §2

p70 S6K [6] = tested on: p70 S6K
Method: as §1, §2

4E-BP1 [7] = conditions: Imatinib 0.5-4 μM or rapamycin 5 nM alone, or combined
Method: as §1

Erk1/2 kinases [8] = conditions: 18 hours; indicated concentrations; remark: listed apart in the source
Method: as §1, §2

4E-BP1 [9] = assay: Immunoblot of 4E-BP1 phosphorylation in Ba/F-FLT3-ITD cells; assay type: cell-based
Method: as §1
The blots were reprobed for p70 S6 kinase and Erk2, respectively, to ensure equivalent loading.

[10] = tested on: PTEN-positive human prostate cancer cells (CWR22); assay: Proliferation (cell number, hemocytometer) of CWR22 cells; assay type: cell-based; conditions: rapamycin at indicated concentrations alone or with Imatinib 2 μg/ml; 7 days
Method: PTEN-positive human prostate cancer cells (CWR22) were seeded at 30,000 cells per 6-well cluster (35 mm plate). […] Media was changed every 2 days with fresh drugs. After 7 days, cell number was determined by hemocytometer (see FIG. 9).

[11] = tested on: PTEN-negative human prostate cancer cells (LnCaP); assay: Proliferation (cell number, hemocytometer) of LnCaP cells; assay type: cell-based; conditions: rapamycin at indicated concentrations alone or with Imatinib 2 μg/ml; 7 days
Method: PTEN-negative human prostate cancer cells (LnCaP) were seeded at 30,000 cells per 6-well cluster (35 mm plate). […] Media was changed every 2 days with fresh drugs. After 7 days, cell number was determined by hemocytometer (see FIG. 10).

[12] = tested on: murine BCR/ABL disease model; assay: Survival in mouse model of CML (BCR/ABL bone marrow transplantation); assay type: in vivo, BALB/C mice
Method: BALB/C donor mice were primed with intraperitoneal injection of 5′ fluorouracil (150 mg/kg). After 5 days, bone marrow cells were collected and transduced with MSCV p210 (BCR/ABL)-IRES-GFP viruses by two rounds of spinfection. After second round of transduction, cells were resuspended in Hanks balanced salt solution and injected (1×10^6 cells/0.5 ml) into the lateral tail vein of lethally irradiated (2×450 cGy) female recipient BALB/C mice. […] All animals in the trial received two gavage treatments and one IP treatment per 24 hours. Treatment was started from day 9 after bone marrow transplantation (BMT) and continued until the mice died. The log rank statistics were used to attach a significance level to the difference in the survival curves.
These mice were censored from the statistical analysis of survival. Peripheral blood was collected from the retroorbital cavity using a heparinized glass capillary. Blood smears were stained with Wright and Giemsa. Manual and automated (ADIVA 120 Hematology system, Bayer) total and differential blood cell counts were performed, as well as histopathologic exam of relevant organs (spleen, liver, heart, lungs, intestine, hindlimb bones, and kidneys). […]

[13] = tested on: BCR/ABL-transformed primary B lymphoblasts; conditions: 24 hours; rapamycin 0.25-10 nM alone; Imatinib 0.25-4 μM alone or in combination with rapamycin 2 nM
Ba/F-BCR/ABL WT cells = conditions: rapamycin 5 nM; 48 hours of exposure
[14] = tested on: Ba/F-FLT3-ITD F691I cells
Method: as §3

[15] = achieved in transplant patients; cited from earlier work

With `N#CC(=C(/N)Sc1ccccc1N)/C(C#N)=C(/N)Sc1ccccc1N` [UO126] the “inhibition of BCR/ABL-evoked myeloid colony formation” value [1] was 16%, the “% of viable cells in phase: G1” value [2] was 44.6% and the “% of viable cells in phase: G2/M” value [2] was 3.8%. For the same compound, the “% of viable cells in phase: S” value [2] was 51.6%, the “Total % Apoptotic” value [2] was 4.6% and the inhibition of proliferation (Ba/F-BCR/ABL T315I cells; UO126 5 μM, Imatinib 0.5 μM, rapamycin 5 nM, alone or in combinations) was “only modest inhibitory effects”.
With `CO[C@@H]1[C@H](N(C)C(=O)c2ccccc2)C[C@H]2O[C@]1(C)n1c3ccccc3c3c4c(c5c6ccccc6n2c5c31)C(=O)NC4` [PKC412] the “effect on cell proliferation” value [3] was “almost no effect”.
For Rapamycin, the “inhibition of [3H]-thymidine incorporation” value (K562 cells) was roughly 25%, the “inhibition of Erk activation” value (Erk1/2 kinases [4]) was “did not inhibit Erk activation” and the “inhibition of p70 S6K activation” value (p70 S6K [5]) was “almost completely inhibited activation of p70 S6K”. For the same compound, the “inhibition of p70 S6K phosphorylation” value (p70 S6K [6]; rapamycin 5 nM) was “totally inhibited p70 S6K phosphorylation”, the “inhibition of p70 S6K activation” value (p70 S6K [6]; rapamycin 0.5-5 nM, 18 hours) was “almost completely inhibited activation of p70 S6K” and the “inhibition of 4E-BP1 phosphorylation” value (4E-BP1 [7]) was “partial inhibition of 4E-BP1phosphorylation”. For the same compound, the “inhibition of Erk activation” value (Erk1/2 kinases [8]) was “did not inhibit Erk activation”, the “resistance of 4E-BP1 phosphorylation to rapamycin relative to p70 S6K” value (4E-BP1 [9]) was greater than 10 fold and the “inhibitory effect on proliferation of prostate cancer cells” value [10] was “significant inhibitory effect on proliferation”. For the same compound, the “inhibitory effect on proliferation of prostate cancer cells” value [11] was “significant inhibitory effect on proliferation”, the “survival versus double placebo, p (log rank)” value ([12]; Rapamycin 7.0 mg/kg/day intraperitoneal or Imatinib 70 mg/kg/day oral gavage, each plus placebo) was 0.04 and the survival ([12]; Rapamycin 7.0 mg/kg/day intraperitoneal, Imatinib 70 mg/kg/day oral gavage, from day 9 after BMT) was “survived longer than those treated with double placebo”. For the same compound, the “inhibition of cell proliferation ([3H]-thymidine incorporation)” value [13] was “inhibited the proliferation of these cells at doses significantly below typical serum levels”, the inhibition of proliferation (Ba/F-BCR/ABL WT cells) was roughly 60% and the inhibition [14] was 68%. The “% of viable cells in phase: G1” value [2] was 79.9%, the “% of viable cells in phase: G2/M” value [2] was 1.8% and the “% of viable cells in phase: S” value [2] was 18.3%. For the same compound, the “Total % Apoptotic” value [2] was 8.6%, the “effect on cell cycle and apoptosis” value ([2]; alone or combined) was “G1 arrest, but no significant apoptosis” and the typical serum levels [15] was 5 to 15 nM. For the same compound, the inhibition of proliferation (Ba/F-BCR/ABL T315I cells; rapamycin 5 nM alone) was “about 70%”.

Reference: patent US20060094674A1, “Combination of mtor inhibitor and a tyrosine kinase inhibitor for the treatment of neoplasms” (priority 2002, published 2006)
